Drawing on patent publication US9737545B2 (MERCK SHARP & DOHME CORP., priority 2013, dated 2017), this text covers IC50 for 24 molecules.

pIC50: −log10 of the molar value.

This experiment addresses T1, wildtype HIV-1 protease (Human immunodeficiency virus type 1 group M subtype B, UniProt P04585).
T1 construct: preincubated with the HIV-1 protease (wild type) enzyme in assay buffer; made in house; host or cells: Escherichia coli
Description: Assay for Inhibition of Microbial Expressed HIV Protease (Pepcleav). The class given is biochemical. The procedure:
Assay for Inhibition of Microbial Expressed HIV Protease (“Pepcleav”)
Studies of the inhibition of the wildtype HIV-1 protease (which was expressed in Escherichia coli) were carried out with a peptide substrate [Val-Ser-Gln-Asn-(βnaphthyl)Ala-Pro-Ile-Val (SEQ ID NO: 1)]. The inhibitor was first preincubated with the HIV-1 protease (wild type) enzyme in assay buffer (50 mM sodium acetate, pH 5.5, 100 mM NaCl, and 0.1% BSA) for 30 minutes at room temperature. Substrate was added to 400 micromolar in a total volume of 20 microliters containing 20 picomolar HIV-1 protease (final) and the reaction was incubated for 1 hour at 30° C. The reaction was quenched with the addition of formic acid and indinavir to 0.012% and 150 nM final concentrations, respectively. The product formation was determined after separation of product and substrate on a Zorbax Eclipse XDB-C18 column connected to an API 4000 mass spectrometer (Applied Biosystems) with multiple reaction monitoring (transitions were 644.5/428.9 and 615.4/422.2 (M1/M3) for product and indinavir respectively). The extent of inhibition of the reaction was determined from the peak area of the products. Analysis of the products, independently synthesized, provided quantitation standards and confirmation of the product composition.
The pIC50 is −log10 of the IC50, conventionally taken in molar units. The molecule `COC(=O)N[C@H](C(=O)Nc1cncc(F)c1CC[C@@H]1CN[C@H](c2nc3ccccc3[nH]2)CO1)C(c1ccc(F)cc1)c1ccc(F)cc1` [Example 72, N-(4-{2-[(2R,5R)-5-(1H-benzimidazol-2-yl)morpholin-2-yl]ethyl}-5-fluoropyridin-3-yl)-4-fluoro-β-(4-fluorophenyl)-Nα-(methoxycarbonyl)-L-phenylalaninamide] gave a pIC50 of 11.00.
Under `COC(=O)N[C@H](C(=O)Nc1ccccc1CC[C@@H]1CN[C@H](c2ncc(-c3ccccc3)[nH]2)CO1)C(c1ccccc1)c1ccccc1` [Example 45, Nα-(methoxycarbonyl)-β-phenyl-N-(2-{2-[(2R,5R)-5-(5-phenyl-1H-imidazol-2-yl)morpholin-2-yl]ethyl}phenyl)-L-phenylalaninamide] stands 10.39.
Under `COC(=O)N[C@H](C(=O)Nc1ccccc1CC[C@@H]1CN[C@H](c2ncc(C)[nH]2)CO1)C(c1ccccc1)c1ccccc1` [Example 43, methyl {(1S)-1-(diphenylmethyl)-2-[(2-{2-[(2R,5R)-5-(5-methyl-1H-imidazol-2-yl)morpholin-2-yl]ethyl}phenyl)amino]-2-oxoethyl}carbamate] stands 8.99.
In the case of `O=C(C[C@H](c1ccccc1)c1ccc(F)cc1)Nc1cncc(F)c1CC[C@@H]1CN[C@H](c2nc3cc(F)c(F)cc3[nH]2)CO1` [Example 70, (3R)—N-(4-{2-[(2R,5R)-5-(5,6-difluoro-1H-benzimidazol-2-yl)morpholin-2-yl]ethyl}-5-fluoropyridin-3-yl)-3-(4-fluorophenyl)-3-phenylpropanamide] it was 11.00; in that of `N[C@H](C(=O)Nc1cccc(F)c1OC[C@@H]1CN[C@H](c2nc3ccccc3[nH]2)CO1)C(c1ccccc1)c1ccccc1` [Example 94, N-(2-{[(2S,5R)-5-(1H-benzimidazol-2-yl)morpholin-2-yl]methoxy}-3-fluorophenyl)-β-phenyl-L-phenylalaninamide], 9.66; in that of `N[C@H](C(=O)Nc1cncc(F)c1CC[C@@H]1CN[C@H](c2nc3cc(C(=O)NCC(F)(F)F)ccc3[nH]2)CO1)C(c1ccccc1)c1ccccc1` [Example 101, N-(5-fluoro-4-{2-[(2R,5R)-5-{5-[(2,2,2-trifluoroethyl)carbamoyl]-1H-benzimidazol-2-yl}morpholin-2-yl]ethyl}pyridin-3-yl)-β-phenyl-L-phenylalaninamide], 7.59.
`COC(=O)N[C@H](C(=O)Nc1ccccc1CC[C@@H]1CN[C@H](c2[nH]c3ccccc3c2C=[N+](C)C)CO1)C(c1ccccc1)c1ccccc1` [Example 90, N-[(2-{(3R,6R)-6-[2-(2-{[N-(methoxycarbonyl)-β-phenyl-L-phenylalanyl]amino}phenyl)ethyl]morpholin-3-yl}-1H-indol-3-yl)methylidene]-N-methylmethanaminium] had a pIC50 of 7.17.
Consider `Cc1cc2nc([C@@H]3CO[C@H](COc4c(F)cccc4NC(=O)C[C@@H](c4ccc(F)cc4)c4cc(F)cc(F)c4)CN3)[nH]c2cc1C` [Example 104, (3S)-3-(3,5-difluorophenyl)-N-(2-{[(2S,5R)-5-(5,6-dimethyl-1H-benzimidazol-2-yl)morpholin-2-yl]methoxy}-3-fluorophenyl)-3-(4-fluorophenyl) propanamide], for which the pIC50 was 8.96.
In the case of `COC(=O)N[C@H](C(=O)Nc1ccccc1CC[C@@H]1CN[C@H](c2cc3ccccc3[nH]2)CO1)C(c1ccccc1)c1ccccc1` [Example 53, N-(2-{2-[(2R,5R)-5-(1H-indol-2-yl)morpholin-2-yl]ethyl}phenyl)-Nα-(methoxycarbonyl)-β-phenyl-L-phenylalaninamide] it was 7.35.
In the case of `COC(=O)N[C@H](C(=O)Nc1ccccc1CC[C@@H]1CN[C@H](c2nc3ccc(S(C)(=O)=O)cc3[nH]2)CO1)C(c1ccccc1)c1ccccc1` [Example 7, methyl N-[(1S)-1-benzhydryl-2-[[2-[2-[(2R,5R)-5-(6-methylsulfonyl-1H-benzimidazol-2-yl)morpholin-2-yl]ethyl]phenyl]amino]-2-oxo-ethyl]carbamate] it was 7.43.
In the case of `COC(=O)N[C@H](C(=O)Nc1c(CC[C@@H]2CN[C@H](c3nc4cc(C)c(C)cc4[nH]3)CO2)cc[nH]c1=O)C(c1ccccc1)c1ccccc1` [Example 35, methyl N-[(1S)-1-benzhydryl-2-[[4-[2-[(2R,5R)-5-(5,6-dimethyl-1H-benzimidazol-2-yl)morpholin-2-yl]ethyl]-2-oxo-1H-pyridin-3-yl]amino]-2-oxo-ethyl]carbamate], the pIC50 was 9.80.
`COC(=O)N[C@H](C(=O)Nc1ccccc1CC[C@@H]1CN[C@H](c2cc3ccc(Cl)cc3[nH]2)CO1)C(c1ccccc1)c1ccccc1` [Example 58, N-(2-{2-[(2R,5R)-5-(6-chloro-1H-indol-2-yl)morpholin-2-yl]ethyl}phenyl)-Nα-(methoxycarbonyl)-β-phenyl-L-phenylalaninamide] had a pIC50 of 7.12.
In the case of `COC(=O)N[C@H](C(=O)Nc1cnccc1CC[C@@H]1CN[C@H](c2nc3cc(C)c(C)cc3[nH]2)CO1)C(c1ccccc1)c1ccccc1` [Example 32, methyl N-[(1S)-1-benzhydryl-2-[[4-[2-[(2R,5R)-5-(5,6-dimethyl-1H-benzimidazol-2-yl)morpholin-2-yl]ethyl]-3-pyridyl]amino]-2-oxo-ethyl]carbamate] it was 10.40.
Under `COC(=O)N[C@H](C(=O)Nc1ccccc1CC[C@@H]1CN[C@H](c2nc3ccc(C(F)(F)F)cc3[nH]2)CO1)C(c1ccccc1)c1ccccc1` [Example 8, methyl N-[(1S)-1-benzhydryl-2-oxo-2-[[2-[2-[(2R,5R)-5-[6-(trifluoromethyl)-1H-benzimidazol-2-yl]morpholin-2-yl]ethyl]phenyl]amino]ethyl]carbamate] stands 9.30.
Under `COC(=O)N[C@H](C(=O)Nc1ccccc1CC[C@@H]1CN[C@H](c2nnnn2Cc2ccccc2)CO1)C(c1ccccc1)c1ccccc1` [Example 39, methyl [(1S)-2-[(2-{2-[(2R,5R)-5-(1-benzyl-1H-tetrazol-5-yl)morpholin-2-yl]ethyl}phenyl)amino]-1-(diphenylmethyl)-2-oxoethyl]carbamate] stands 6.19; under `COC(=O)N[C@H](C(=O)Nc1ccccc1CC[C@@H]1CN[C@H](c2nc3cc(Cl)c(C)cc3[nH]2)CO1)C(c1ccccc1)c1ccccc1` [Example 22, methyl N-[(1S)-1-benzhydryl-2-[[2-[2-[(2R,5R)-5-(5-chloro-6-methyl-1H-benzimidazol-2-yl)morpholin-2-yl]ethyl]phenyl]amino]-2-oxo-ethyl]carbamate], 8.71.
For the molecule `COC(=O)N[C@H](C(=O)Nc1cncc(F)c1CC[C@@H]1CN[C@H](c2nc3cc(F)c(F)cc3[nH]2)CO1)C(c1ccc(F)cc1)c1ccc(F)cc1` [Example 76, N-(4-{2-[(2R,5R)-5-(5,6-difluoro-1H-benzimidazol-2-yl)morpholin-2-yl]ethyl}-5-fluoropyridin-3-yl)-4-fluoro-β-(4-fluorophenyl)-Nα-(methoxycarbonyl)-L-phenylalaninamide], the pIC50 is 10.70.
Under `COC(=O)N[C@H](C(=O)Nc1ccccc1CC[C@@H]1CN[C@H](c2nnn[nH]2)CO1)C(c1ccccc1)c1ccccc1` [Example 77, Nα-(methoxycarbonyl)-β-phenyl-N-(2-{2-[(2R,5R)-5-(1H-tetrazol-5-yl)morpholin-2-yl]ethyl}phenyl)-L-phenylalaninamide] stands 8.46; under `COC(=O)N[C@H](C(=O)Nc1ccccc1CC[C@@H]1CN[C@H](c2nc3c(F)c(F)c(F)cc3[nH]2)CO1)C(c1ccccc1)c1ccccc1` [Example 17, methyl N-[(1S)-1-benzhydryl-2-oxo-2-[[2-[2-[(2R,5R)-5-(4,5,6-trifluoro-1H-benzimidazol-2-yl)morpholin-2-yl]ethyl]phenyl]amino]ethyl]carbamate], 10.13; under `COC(=O)N[C@H](C(=O)Nc1ccccc1CC[C@@H]1CN[C@H](c2cc3cc(C(F)(F)F)ccc3[nH]2)CO1)C(c1ccccc1)c1ccccc1` [Example 55], 6.82.
Under `COC(=O)N[C@H](C(=O)Nc1ccccc1CC[C@@H]1CN[C@H](c2nc3ccccc3n2C)CO1)C(c1ccccc1)c1ccccc1` [Example 2, methyl N-[(1S)-1-benzhydryl-2-[[2-[2-[(2R,5R)-5-(1-methylbenzimidazol-2-yl)morpholin-2-yl]ethyl]phenyl]amino]-2-oxo-ethyl]carbamate] stands 8.10; under `C#C[C@@H]1CO[C@H](CCc2ccccc2NC(=O)[C@@H](NC(=O)OC)C(c2ccccc2)c2ccccc2)CN1` [Example 49, N-(2-{2-[(2R,5R)-5-ethynylmorpholin-2-yl]ethyl}phenyl)-Nα-(methoxycarbonyl)-β-phenyl-L-phenylalaninamide], 6.08.
In turn, `COC(=O)N[C@H](C(=O)Nc1ccccc1CC[C@@H]1CN[C@H](c2cnn[nH]2)CO1)C(c1ccccc1)c1ccccc1` [Example 52, Nα-(methoxycarbonyl)-β-phenyl-N-(2-{2-[(2R,5R)-5-(1H-1,2,3-triazol-5-yl)morpholin-2-yl]ethyl}phenyl)-L-phenylalaninamide] showed a pIC50 of 6.60.
In the case of `COC(=O)N[C@H](C(=O)Nc1cccc(F)c1CC[C@@H]1CN[C@H](c2nc3cc(C)c(C)cc3[nH]2)CO1)C(c1ccccc1)c1ccccc1` [Example 29, N-(2-{2-[(2R,5R)-5-(5,6-dimethyl-1H-benzimidazol-2-yl)morpholin-2-yl]ethyl}-3-fluorophenyl)-Na-(methoxycarbonyl)-b-phenyl-L-phenylalaninamide] it was 10.90.
